Measurements published in US5234907A, “Synthetic vasoactive intestinal peptide analogs” (Hoffmann-La Roche Inc., priority 1991, dated 1993).
[ ]: non-standard residue; d: D form. Phe(4-NH2) = Nc1ccc(C[C@H](N)C(=O)O)cc1; Phe(4-F) = N[C@@H](Cc1ccc(F)cc1)C(=O)O; Nle = CCCC[C@H](N)C(=O)O

Tests used:
[1] = tested on: guinea pigs; assay: In vivo bronchodilator activity by tracheal instillation against histamine-induced bronchoconstriction; design: species or system guinea pig; conditions: 100 μl, anesthetized male Hartley guinea pigs, histamine challenge 50 μg/kg i.v., inhibition of tracheal pressure increase
[2] = tested on: guinea pig tracheal smooth muscle; assay: Tracheal relaxant activity of VIP analogs on isolated guinea pig tracheal rings; type: cell-based; conditions: cumulative concentration response; responses as % of maximum response to VIP (10^-6 M=100%); at least three tissues pooled; linear regression

| Substance | Bronchodilator activity in guinea pigs, ED50 [1] [µg] | EC50 [2] [nM] |
| --- | --- | --- |
| Ac--[p-F--Phe^6, Glu^8, Lys^12, Nle^17, Ala^25, Leu^26, Lys^27,28, Gly^29,30, Thr^31 ]--VIP (Ac-HSDAV[Phe(4-F)]TENYTKLRKQ[Nle]AVKKYLNALKKGGT-NH2; SMILES CCCC[C@H](NC(=O)[C@H](CCC(N)=O)NC(=O)[C@H](CCCCN)NC(=O)[C@H](CCCNC(=N)N)NC(=O)[C@H](CC(C)C)NC(=O)[C@H](CCCCN)NC(=O)[C@@H](NC(=O)[C@H](Cc1ccc(O)cc1)NC(=O)[C@H](CC(N)=O)NC(=O)[C@H](CCC(=O)O)NC(=O)[C@@H](NC(=O)[C@H](Cc1ccc(F)cc1)NC(=O)[C@@H](NC(=O)[C@H](C)NC(=O)[C@H](CC(=O)O)NC(=O)[C@H](CO)NC(=O)[C@H](Cc1c[nH]cn1)NC(C)=O)C(C)C)[C@@H](C)O)[C@@H](C)O)C(=O)N[C@@H](C)C(=O)N[C@H](C(=O)N[C@@H](CCCCN)C(=O)N[C@@H](CCCCN)C(=O)N[C@@H](Cc1ccc(O)cc1)C(=O)N[C@@H](CC(C)C)C(=O)N[C@@H](CC(N)=O)C(=O)N[C@@H](C)C(=O)N[C@@H](CC(C)C)C(=O)N[C@@H](CCCCN)C(=O)N[C@@H](CCCCN)C(=O)NCC(=O)NCC(=O)N[C@H](C(N)=O)[C@@H](C)O)C(C)C) [Ac--(SEQ ID NO: 17)--NH2] | 0.12 | 0.33 |
| Ac--[p-F--Phe^6, Glu^8, Lys^12, Nle^17, Val^26, Thr^28, Gly^29,30, Thr^31 ]--VIP (Ac-HSDAV[Phe(4-F)]TENYTKLRKQ[Nle]AVKKYLNSVLTGGT-NH2; SMILES CCCC[C@H](NC(=O)[C@H](CCC(N)=O)NC(=O)[C@H](CCCCN)NC(=O)[C@H](CCCNC(=N)N)NC(=O)[C@H](CC(C)C)NC(=O)[C@H](CCCCN)NC(=O)[C@@H](NC(=O)[C@H](Cc1ccc(O)cc1)NC(=O)[C@H](CC(N)=O)NC(=O)[C@H](CCC(=O)O)NC(=O)[C@@H](NC(=O)[C@H](Cc1ccc(F)cc1)NC(=O)[C@@H](NC(=O)[C@H](C)NC(=O)[C@H](CC(=O)O)NC(=O)[C@H](CO)NC(=O)[C@H](Cc1c[nH]cn1)NC(C)=O)C(C)C)[C@@H](C)O)[C@@H](C)O)C(=O)N[C@@H](C)C(=O)N[C@H](C(=O)N[C@@H](CCCCN)C(=O)N[C@@H](CCCCN)C(=O)N[C@@H](Cc1ccc(O)cc1)C(=O)N[C@@H](CC(C)C)C(=O)N[C@@H](CC(N)=O)C(=O)N[C@@H](CO)C(=O)N[C@H](C(=O)N[C@@H](CC(C)C)C(=O)N[C@H](C(=O)NCC(=O)NCC(=O)N[C@H](C(N)=O)[C@@H](C)O)[C@@H](C)O)C(C)C)C(C)C) [Ac--(SEQ ID NO: 14)--NH2] | 0.1 | 0.32 |
| Ac--[p-F--Phe^6, p-NH2 --Phe^10, Lys^12, Nle^17, Val^26, Thr^28 ]--VIP (Ac-HSDAV[Phe(4-F)]TDN[Phe(4-NH2)]TKLRKQ[Nle]AVKKYLNSVLT-NH2; SMILES CCCC[C@H](NC(=O)[C@H](CCC(N)=O)NC(=O)[C@H](CCCCN)NC(=O)[C@H](CCCNC(=N)N)NC(=O)[C@H](CC(C)C)NC(=O)[C@H](CCCCN)NC(=O)[C@@H](NC(=O)[C@H](Cc1ccc(N)cc1)NC(=O)[C@H](CC(N)=O)NC(=O)[C@H](CC(=O)O)NC(=O)[C@@H](NC(=O)[C@H](Cc1ccc(F)cc1)NC(=O)[C@@H](NC(=O)[C@H](C)NC(=O)[C@H](CC(=O)O)NC(=O)[C@H](CO)NC(=O)[C@H](Cc1c[nH]cn1)NC(C)=O)C(C)C)[C@@H](C)O)[C@@H](C)O)C(=O)N[C@@H](C)C(=O)N[C@H](C(=O)N[C@@H](CCCCN)C(=O)N[C@@H](CCCCN)C(=O)N[C@@H](Cc1ccc(O)cc1)C(=O)N[C@@H](CC(C)C)C(=O)N[C@@H](CC(N)=O)C(=O)N[C@@H](CO)C(=O)N[C@H](C(=O)N[C@@H](CC(C)C)C(=O)N[C@H](C(N)=O)[C@@H](C)O)C(C)C)C(C)C) [Ac--(SEQ ID NO: 68)--NH2] | 3.0 | 1.2 |
| Ac--[p-NH2 --Phe^10, Lys^12, Nle^17, Val^26, Thr^28 ]--VIP (Ac-HSDAVFTDN[Phe(4-NH2)]TKLRKQ[Nle]AVKKYLNSVLT-NH2; SMILES CCCC[C@H](NC(=O)[C@H](CCC(N)=O)NC(=O)[C@H](CCCCN)NC(=O)[C@H](CCCNC(=N)N)NC(=O)[C@H](CC(C)C)NC(=O)[C@H](CCCCN)NC(=O)[C@@H](NC(=O)[C@H](Cc1ccc(N)cc1)NC(=O)[C@H](CC(N)=O)NC(=O)[C@H](CC(=O)O)NC(=O)[C@@H](NC(=O)[C@H](Cc1ccccc1)NC(=O)[C@@H](NC(=O)[C@H](C)NC(=O)[C@H](CC(=O)O)NC(=O)[C@H](CO)NC(=O)[C@H](Cc1c[nH]cn1)NC(C)=O)C(C)C)[C@@H](C)O)[C@@H](C)O)C(=O)N[C@@H](C)C(=O)N[C@H](C(=O)N[C@@H](CCCCN)C(=O)N[C@@H](CCCCN)C(=O)N[C@@H](Cc1ccc(O)cc1)C(=O)N[C@@H](CC(C)C)C(=O)N[C@@H](CC(N)=O)C(=O)N[C@@H](CO)C(=O)N[C@H](C(=O)N[C@@H](CC(C)C)C(=O)N[C@H](C(N)=O)[C@@H](C)O)C(C)C)C(C)C) [Ac--(SEQ ID NO: 54)--NH2] | 2.0 | 0.36 |
